According to patent publication US20240059688A1, “CONOLIDINE ANALOGUES AS SELECTIVE ACKR3 MODULATORS FOR THE TREATMENT OF CANCER” (Luxembourg Institute of Health (LIH), priority 2020, published 2024):
One block for each molecule: values may come before it.

Assays:
ACKR3 = ACKR3 (Homo sapiens, UniProt P25106); experiment: ACKR3 β-arrestin recruitment assay (PathHunter, β-galactosidase complementation); assay type: cell-based; conditions: for Emax: read-out: ACKR3 β-arrestin % CXCL12 Emax ± SEM; for EC50: stable human ACKR3-β-arrestin-2-CHO cells, mean ± SEM, at least two independent experiments in duplicate
Method: (§1) Compounds were evaluated for agonist activity using a β-arrestin recruitment assay based on β-galactosidase complementation (PathHunter, DiscoverX). Stable human ACKR3-β-arrestin-2-CHO cells (DiscoverX) were plated into 96-well white-walled assay plates at 15,000 cells/well in Cell Plating Reagent 2 (DiscoveRx) and incubated at 37° C., 5% CO2 overnight. The next day, test compounds were prepared at 10× concentration in DPBS/1% DMSO and 10 μL was added to the cells. CXCL-12 was included as a positive agonist control. Following a 1.5 hr incubation at 37° C., 55 μL of detection reagent (prepared according to the manufacturer's specifications) was added to each well. The plate was incubated at room temperature for 1 hr, after which luminescence was measured at 1 sec/well using an EnSpire multimode plate reader (PerkinElmer). Relative luminescence units (RLU) were plotted against the log of compound concentration and data were fit to a three-parameter logistic curve to generate EC50 values (GraphPad Prism). EC50 and % Emax values are reported as means±SEM and are the result of at least two independent experiments performed in duplicate. The CXCR4 assay was run similarly except that human CXCR4-C2Cl2 cells (DiscoverX) were plated at 20,000 cells/well in Cell Plating Reagent 9. The next day, the media was removed and cells were incubated with Cell Plating Reagent 4 for 3 hrs, after which the assay was conducted as described above.

human CXCR4 = molecular target: T1, human CXCR4 (Homo sapiens, UniProt P61073); experiment: CXCR4 β-arrestin recruitment assay (PathHunter); assay type: cell-based; conditions: human CXCR4-C2Cl2 cells, relative to CXCL-12
T1 construct: host or cells: C2C12
Method: as §1

T1 sequence (P61073 whole entry): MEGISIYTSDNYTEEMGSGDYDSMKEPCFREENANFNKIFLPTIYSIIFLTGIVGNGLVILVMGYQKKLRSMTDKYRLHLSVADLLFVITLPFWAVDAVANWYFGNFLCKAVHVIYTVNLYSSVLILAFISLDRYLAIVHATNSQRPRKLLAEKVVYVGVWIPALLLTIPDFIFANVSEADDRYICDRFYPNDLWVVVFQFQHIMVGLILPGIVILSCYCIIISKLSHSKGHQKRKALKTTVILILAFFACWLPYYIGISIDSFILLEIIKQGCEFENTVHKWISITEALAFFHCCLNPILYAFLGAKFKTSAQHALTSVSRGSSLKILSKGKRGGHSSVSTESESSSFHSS
Sequence of ACKR3 (P25106 whole entry): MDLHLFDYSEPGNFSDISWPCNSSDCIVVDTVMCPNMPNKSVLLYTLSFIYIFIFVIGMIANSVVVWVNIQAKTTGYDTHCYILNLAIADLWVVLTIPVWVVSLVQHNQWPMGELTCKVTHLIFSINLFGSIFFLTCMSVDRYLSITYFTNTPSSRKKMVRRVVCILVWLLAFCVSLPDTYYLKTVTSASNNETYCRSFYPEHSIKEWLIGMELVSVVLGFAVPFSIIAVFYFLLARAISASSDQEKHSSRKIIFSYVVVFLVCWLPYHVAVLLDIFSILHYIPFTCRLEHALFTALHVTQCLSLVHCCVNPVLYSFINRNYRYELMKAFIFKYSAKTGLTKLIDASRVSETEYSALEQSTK

SMILES: CCCCCN1CCC(C(=O)c2cc3ccccc3n2CCCCC)CC1 [WW-20]
Emax (ACKR3): 154 ± 7%
EC50 (ACKR3): 1770 ± 78 nM
CXCR4 β-arrestin % CXCL-12Emax (n = 2) (human CXCR4): 11%

SMILES: C/C=C1/CN(CCCCC)CC[C@H]1C(=O)c1cc2cc(C(C)=O)ccc2n1CCCCC [WW-66, 1-(2-{[(3E,4R)-3-ethylidene-1-pentylpiperidin-4-yl]carbonyl}-1-pentyl-1H-indol-5-yl)ethanone]
EC50 (ACKR3): > 10000 nM
CXCR4 β-arrestin % CXCL-12Emax (n = 2) (human CXCR4): 8%

SMILES: CCCCCN1CCC(C(=O)c2cc3ccccc3[nH]2)CC1 [WW-19, 1H-indol-2-yl(1-pentylpiperidin-4-yl)methanone]
EC50 (ACKR3): > 10000 nM
CXCR4 β-arrestin % CXCL-12Emax (n = 2) (human CXCR4): 9%

SMILES: CCCCCN1CCN(Cc2cc3ccccc3[nH]2)CC1 [WW-21, 2-[(4-pentylpiperazin-1-yl)methyl]-1H-indole]
EC50 (ACKR3): > 10000 nM
CXCR4 β-arrestin % CXCL-12Emax (n = 2) (human CXCR4): 10%

SMILES: CCCCCN1CC[C@H](NC(=O)c2cc3ccc(-c4ccc(OC)cc4)cc3[nH]2)C1 [WW-45, 6-(4-methoxyphenyl)-N-[(3S)-1-pentylpyrrolidin-3-yl]-1H-indole-2-carboxamide]
EC50 (ACKR3): > 10000 nM
CXCR4 β-arrestin % CXCL-12Emax (n = 2) (human CXCR4): 6%

SMILES: CCCCCN1CC[C@H](NC(=O)c2cc3c(OC)c(OC)c(OC)cc3[nH]2)C1 [WW-47, 4,5,6-Trimethoxy-N-[(3S)-1-pentylpyrrolidin-3-yl]-1H-indole-2-carboxamide]
EC50 (ACKR3): > 10000 nM
CXCR4 β-arrestin % CXCL-12Emax (n = 2) (human CXCR4): 18%

SMILES: C/C=C1/CN(CCCCCN)CC[C@H]1C(=O)c1cc2ccccc2[nH]1 [WW-59, (3E,4R)-(3-ethylidene-1-(5-aminopentyl)piperidin-4-yl)(1H-indol-2-yl)methanone]
EC50 (ACKR3): > 10000 nM
CXCR4 β-arrestin % CXCL-12Emax (n = 2) (human CXCR4): 9%

The next lines start with the values.

EC50 (ACKR3): > 10000 nM
CXCR4 β-arrestin % CXCL-12Emax (n = 2) (human CXCR4): 7%
SMILES: CCCCCN1CCCN(C(=O)c2cc3ccccc3[nH]2)CC1 [WW-30, 2-[(4-pentyl-1,4-diazepan-1-yl)carbonyl]-1H-indole]

Emax (ACKR3): 156 ± 7%
EC50 (ACKR3): 527 ± 130 nM
CXCR4 β-arrestin % CXCL-12Emax (n = 2) (human CXCR4): 10%
SMILES: C/C=C1/CN(Cc2ccc(OC)cc2)CC[C@H]1C(O)c1cc2ccccc2n1S(=O)(=O)c1ccccc1 (stereo partly drawn) [WW-61, [(3E,4R)-3-ethylidene-1-(4-methoxybenzyl)piperidin-4-yl][1-(phenylsulfonyl)-1H-indol-2-yl]methanol]

Emax (ACKR3): 152 ± 1%
EC50 (ACKR3): 1780 ± 160 nM
CXCR4 β-arrestin % CXCL-12Emax (n = 2) (human CXCR4): 15%
SMILES: C/C=C1/CN(CCCC(C)C)CC[C@H]1C(=O)c1cc2ccccc2[nH]1 [WW-63, [(3E,4R)-3-ethylidene-1-(4-methylpentyl)piperidin-4-yl](1H-indol-2-yl)methanone]

Emax (ACKR3): 135 ± 4%
EC50 (ACKR3): 2460 ± 270 nM
CXCR4 β-arrestin % CXCL-12Emax (n = 2) (human CXCR4): 12%
SMILES: C/C=C1/CN(CCCCCCC)CC[C@H]1C(=O)c1cc2ccccc2[nH]1 [WW-67, [(3E,4R)-3-ethylidene-1-heptylpiperidin-4-yl](1H-indol-2-yl)methanone]

Emax (ACKR3): 150 ± 3%
EC50 (ACKR3): 377 ± 9 nM
CXCR4 β-arrestin % CXCL-12Emax (n = 2) (human CXCR4): 6%
SMILES: O=C(N[C@H]1CCN(c2nccn3cccc23)C1)c1cc2ccccc2[nH]1 [WW-33, N-[(3S)-1-pyrrolo[1,2-a]pyrazin-1-ylpyrrolidin-3-yl]-1H-indole-2-carboxamide]
